Results reported in patent US11149054B2, “Oxysterols and methods of use thereof” (Sage Therapeutics, Inc., priority 2016, dated 2021).
Read-outs that look alike come from different tables or passages of the source.

How the values were obtained:
[1] = target: GlunN1/GluN2A glutamate receptors (Homo sapiens (Human), UniProt Q05586+Q12879); experiment: Whole-cell patch clamp of mammalian cells (Ionworks Barracuda), positive allosteric modulation, GluN1/GluN2A; assay type: cell-based
Method in brief: (§1)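 Perforated-patch whole-cell recording, holding −70 mV, −40 mV during application; Cs-based internal pH 7.2, external with 5 mM CaCl2 pH 7.4. Test article pre-applied alone 5 min, then co-applied with EC20 L-glutamate plus 30 μM glycine. EC50 from Hill fit of % activation over the EC20 current.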

[2] = target: GluN2B glutamate receptors (Homo sapiens (Human), UniProt Q05586+Q13224); experiment: Whole-cell patch clamp of mammalian cells (Ionworks Barracuda), positive allosteric modulation, GluN2B; assay type: cell-based; details: for Emax: read-out: Avg Emax 2B (%)
Method in brief: as §1

[3] = HEK293 cells, % potentiation of current elicited with EC20 L-glutamate and 30 μM glycine, read-out: Avg Emax 2A (%)
[4] = % potentiation of current elicited with EC20 L-glutamate and 30 μM glycine
[5] = HEK293 cells, co-application with EC20 L-glutamate and 30 μM glycine, 8-point concentration-response, read-out: Avg EC50 2A
[6] = co-application with EC20 L-glutamate and 30 μM glycine, 8-point concentration-response, read-out: Avg EC50 2B
[7] = HEK293, read-out: Avg Emax 2A (%)

Sequence of GluN2B glutamate receptors (Q13224 27-1484, other chains not shown): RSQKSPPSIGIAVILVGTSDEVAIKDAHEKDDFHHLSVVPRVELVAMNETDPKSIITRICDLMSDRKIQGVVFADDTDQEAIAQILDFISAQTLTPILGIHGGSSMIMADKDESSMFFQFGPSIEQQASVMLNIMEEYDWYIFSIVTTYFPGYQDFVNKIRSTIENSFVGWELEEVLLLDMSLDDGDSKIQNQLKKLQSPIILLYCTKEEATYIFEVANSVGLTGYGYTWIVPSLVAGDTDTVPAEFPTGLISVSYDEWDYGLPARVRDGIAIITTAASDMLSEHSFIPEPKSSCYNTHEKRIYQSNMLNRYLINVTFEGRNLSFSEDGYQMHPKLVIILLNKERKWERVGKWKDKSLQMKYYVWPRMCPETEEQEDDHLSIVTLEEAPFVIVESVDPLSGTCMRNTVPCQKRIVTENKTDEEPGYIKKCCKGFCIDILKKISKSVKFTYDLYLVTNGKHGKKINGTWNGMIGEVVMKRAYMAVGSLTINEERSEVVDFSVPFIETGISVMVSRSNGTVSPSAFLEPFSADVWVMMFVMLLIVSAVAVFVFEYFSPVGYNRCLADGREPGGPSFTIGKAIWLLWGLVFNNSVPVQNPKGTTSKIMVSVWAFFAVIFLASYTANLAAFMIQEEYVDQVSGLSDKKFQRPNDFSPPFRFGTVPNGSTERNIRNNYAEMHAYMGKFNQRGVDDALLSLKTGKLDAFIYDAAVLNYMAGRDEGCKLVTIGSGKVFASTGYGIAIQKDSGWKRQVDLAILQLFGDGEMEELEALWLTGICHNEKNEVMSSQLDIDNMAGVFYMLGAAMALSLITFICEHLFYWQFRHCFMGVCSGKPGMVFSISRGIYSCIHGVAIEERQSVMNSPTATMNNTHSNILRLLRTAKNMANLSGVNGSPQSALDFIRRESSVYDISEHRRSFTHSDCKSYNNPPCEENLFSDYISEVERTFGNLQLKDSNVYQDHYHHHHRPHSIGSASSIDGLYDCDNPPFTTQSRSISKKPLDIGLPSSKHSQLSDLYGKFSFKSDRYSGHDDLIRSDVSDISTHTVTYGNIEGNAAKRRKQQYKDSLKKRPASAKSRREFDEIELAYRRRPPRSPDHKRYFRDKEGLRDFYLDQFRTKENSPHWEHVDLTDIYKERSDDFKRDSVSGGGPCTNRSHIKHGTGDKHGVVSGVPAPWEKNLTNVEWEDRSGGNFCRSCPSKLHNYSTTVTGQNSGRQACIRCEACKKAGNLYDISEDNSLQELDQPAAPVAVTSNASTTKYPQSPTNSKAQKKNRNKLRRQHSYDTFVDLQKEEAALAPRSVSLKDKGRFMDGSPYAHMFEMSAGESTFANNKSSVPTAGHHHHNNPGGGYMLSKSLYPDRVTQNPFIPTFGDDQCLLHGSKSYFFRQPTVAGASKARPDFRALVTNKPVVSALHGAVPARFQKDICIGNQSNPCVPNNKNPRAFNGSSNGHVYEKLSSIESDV
Sequence of GlunN1/GluN2A glutamate receptors (Q12879 23-1464, other chains not shown): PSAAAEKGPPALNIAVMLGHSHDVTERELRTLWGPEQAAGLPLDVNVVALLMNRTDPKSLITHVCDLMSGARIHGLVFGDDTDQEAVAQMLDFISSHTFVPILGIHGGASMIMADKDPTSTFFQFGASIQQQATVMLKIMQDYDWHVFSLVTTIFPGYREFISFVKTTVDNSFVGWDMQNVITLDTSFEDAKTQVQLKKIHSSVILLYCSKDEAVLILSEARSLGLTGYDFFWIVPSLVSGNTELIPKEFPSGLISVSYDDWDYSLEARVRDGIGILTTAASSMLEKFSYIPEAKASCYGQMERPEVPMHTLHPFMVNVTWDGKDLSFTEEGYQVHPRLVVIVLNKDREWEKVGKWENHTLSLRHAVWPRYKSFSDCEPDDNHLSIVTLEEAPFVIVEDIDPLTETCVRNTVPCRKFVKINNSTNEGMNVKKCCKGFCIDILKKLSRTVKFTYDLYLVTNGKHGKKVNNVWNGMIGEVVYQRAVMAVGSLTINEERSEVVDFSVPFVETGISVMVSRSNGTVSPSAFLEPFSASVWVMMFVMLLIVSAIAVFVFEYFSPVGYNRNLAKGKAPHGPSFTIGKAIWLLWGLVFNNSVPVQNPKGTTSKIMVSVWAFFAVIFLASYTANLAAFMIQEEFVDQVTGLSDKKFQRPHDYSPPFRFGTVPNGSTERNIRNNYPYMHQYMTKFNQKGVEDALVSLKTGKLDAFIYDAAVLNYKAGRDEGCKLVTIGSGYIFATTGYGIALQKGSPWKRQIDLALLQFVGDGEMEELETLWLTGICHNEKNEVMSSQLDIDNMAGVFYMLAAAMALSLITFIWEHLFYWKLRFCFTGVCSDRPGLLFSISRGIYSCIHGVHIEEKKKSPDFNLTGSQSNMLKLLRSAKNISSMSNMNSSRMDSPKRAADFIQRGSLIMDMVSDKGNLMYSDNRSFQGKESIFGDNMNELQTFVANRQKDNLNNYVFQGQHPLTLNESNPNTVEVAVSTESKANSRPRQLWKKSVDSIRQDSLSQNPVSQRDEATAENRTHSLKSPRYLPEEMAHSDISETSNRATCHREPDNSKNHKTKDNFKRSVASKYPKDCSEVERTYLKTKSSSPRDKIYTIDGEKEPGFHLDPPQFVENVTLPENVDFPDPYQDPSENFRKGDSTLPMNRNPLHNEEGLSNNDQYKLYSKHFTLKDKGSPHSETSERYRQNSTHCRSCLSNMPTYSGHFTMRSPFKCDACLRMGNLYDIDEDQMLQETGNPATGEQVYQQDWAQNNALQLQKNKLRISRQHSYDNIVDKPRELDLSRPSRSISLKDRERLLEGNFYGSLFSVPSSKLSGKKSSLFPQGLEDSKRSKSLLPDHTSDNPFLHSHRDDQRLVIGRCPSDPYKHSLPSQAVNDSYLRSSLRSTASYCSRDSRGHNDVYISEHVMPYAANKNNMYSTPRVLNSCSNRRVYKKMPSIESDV

Structure (SMILES)	EC50 [1]	Emax [1, 3]	EC50 [2]	Emax [2, 4]	EC50 [1, 5]	EC50 [2, 6]	Emax [1, 7]	Emax [2]
CC[C@]1(O)CC[C@@]2(C)C(=CC[C@H]3[C@@H]4CC[C@H]([C@H](C)CC[C@@H](O)c5cccc(C#N)c5)[C@@]4(C)CC[C@@H]32)C1 [Compound 6997]	373 nM	327%	414 nM	315%				
CC[C@]1(O)CC[C@@]2(C)C(=CC[C@H]3[C@@H]4CC[C@H]([C@H](C)CC[C@H](O)c5cccc(C#N)c5)[C@@]4(C)CC[C@@H]32)C1 [Compound 6998]		338%		303%	358 nM	304 nM		
CC[C@]1(O)CC[C@@]2(C)[C@@H](CC[C@@H]3[C@@H]2CC[C@]2(C)[C@@H]([C@H](C)CC[C@@H](O)c4ccccn4)CC[C@@H]32)C1 [Compound 7030]		28.3%		74.7%				
CC[C@]1(O)CC[C@@]2(C)[C@@H](CC[C@@H]3[C@@H]2CC[C@]2(C)[C@@H]([C@H](C)CC[C@H](O)c4ccccn4)CC[C@@H]32)C1 [Compound 7032]		28.3%	874 nM	63.8%				
CC[C@]1(O)CC[C@@]2(C)C(=CC[C@H]3[C@@H]4CC[C@H]([C@H](C)CC[C@@H](O)c5ccc(F)cc5)[C@@]4(C)CC[C@@H]32)C1 [Compound 7147]			91.7 nM				200%	242%
CC[C@]1(O)CC[C@@]2(C)C(=CC[C@H]3[C@@H]4CC[C@H]([C@H](C)CC[C@@H](O)c5ccccc5F)[C@@]4(C)CC[C@@H]32)C1 [Compound 7282]	95.9 nM		174 nM					
CC[C@]1(O)CC[C@@]2(C)C(=CC[C@H]3[C@@H]4CC[C@H]([C@H](C)CC[C@H](O)c5ccccc5C#N)[C@@]4(C)CC[C@@H]32)C1 [Compound 7300]	> 10000 nM	37.5%	> 10000 nM	46.9%				
CC[C@]1(O)CC[C@@]2(C)C(=CC[C@H]3[C@@H]4CC[C@H]([C@H](C)CC[C@@H](O)c5ccccc5C#N)[C@@]4(C)CC[C@@H]32)C1 [Compound 7399]	696 nM	150%	1580 nM	180%				
C[C@H](CC[C@](C)(O)c1ccccc1)[C@H]1CC[C@H]2[C@@H]3CC=C4C[C@@](C)(O)CC[C@]4(C)[C@H]3CC[C@]12C [Compound 7468]							273%	317%
CC[C@]1(O)CC[C@H]2[C@@H](CC[C@@H]3[C@@H]2CC[C@]2(C)[C@@H]([C@H](C)CCC4(O)CC4)CC[C@@H]32)C1 [Compound 8127]	543 nM	136%	571 nM	211%				
CC[C@]1(O)CC[C@H]2C(=CC[C@@H]3[C@@H]2CC[C@]2(C)[C@@H]([C@H](C)CCC4(O)CC4)CC[C@@H]32)C1 [Compound 8245]	525 nM	73%	268 nM	120%				
CC[C@]1(O)CC[C@H]2C(=CC[C@@H]3[C@@H]2CC[C@]2(C)[C@@H]([C@H](C)CCC(O)C(C)(C)C)CC[C@@H]32)C1 (stereo partly drawn) [Compound 8361]	87 nM		136 nM				252%	309%
CC[C@]1(O)CC[C@H]2C(=CC[C@@H]3[C@@H]2CC[C@]2(C)[C@@H]([C@H](C)CC[C@H](O)C(C)(C)C)CC[C@@H]32)C1 [Compound 8378]	124 nM		208 nM				195%	259%
CC[C@]1(O)CC[C@H]2C(=CC[C@@H]3[C@@H]2CC[C@]2(C)[C@@H]([C@H](C)CC[C@@H](O)C(C)(C)C)CC[C@@H]32)C1 [Compound 8379]	73.4 nM		78.1 nM				252%	359%
CC[C@]1(O)CC[C@H]2C(=CC[C@@H]3[C@@H]2CC[C@]2(C)[C@@H]([C@H](C)CC[C@H](O)C(C)C)CC[C@@H]32)C1 [Compound 8462]	170 nM		96.2 nM					
CC[C@]1(O)CC[C@H]2C(=CC[C@@H]3[C@@H]2CC[C@]2(C)[C@@H]([C@H](C)CC[C@@H](O)C(C)C)CC[C@@H]32)C1 [Compound 8463]	102 nM		85.1 nM					
CCC(O)CC[C@@H](C)[C@H]1CC[C@H]2[C@@H]3CC=C4C[C@](O)(CC)CC[C@@H]4[C@H]3CC[C@]12C (stereo partly drawn) [Compound 8564]	469 nM	252%	489 nM	310%				
CC[C@@H](O)CC[C@@H](C)[C@H]1CC[C@H]2[C@@H]3CC=C4C[C@](O)(CC)CC[C@@H]4[C@H]3CC[C@]12C [Compound 8584]	332 nM	284%	244 nM	363%				
CC[C@H](O)CC[C@@H](C)[C@H]1CC[C@H]2[C@@H]3CC=C4C[C@](O)(CC)CC[C@@H]4[C@H]3CC[C@]12C [Compound 8585]	286 nM	194%	237 nM	233%				
CC[C@]1(O)CC[C@H]2C(=CC[C@@H]3[C@@H]2CC[C@]2(C)[C@@H]([C@H](C)CC[C@]4(O)CCOC4)CC[C@@H]32)C1 [Compound 8603]	135 nM		75.1 nM					
CC[C@]1(O)CC[C@H]2C(=CC[C@@H]3[C@@H]2CC[C@]2(C)[C@@H]([C@H](C)CCC4(O)CCOC4)CC[C@@H]32)C1 (stereo partly drawn) [Compound 8689]	169 nM		175 nM					
CC[C@]1(O)CC[C@H]2C(=CC[C@@H]3[C@@H]2CC[C@]2(C)[C@@H]([C@H](C)CCC4(O)CCC(F)(F)CC4)CC[C@@H]32)C1 [Compound 8708]	697 nM	117%	553 nM	243%				
CC[C@H](O)CC[C@@H](C)[C@H]1CC[C@H]2[C@@H]3CC[C@H]4C[C@](O)(CC)CC[C@@H]4[C@H]3CC[C@]12C [Compound 8809]	533 nM		160 nM				73.6%	78.2%
CC[C@]1(O)CC[C@H]2C(=CC[C@@H]3[C@@H]2CC[C@]2(C)[C@@H]([C@H](C)CCC4(O)CCC(C)(C)CC4)CC[C@@H]32)C1 [Compound 8946]	1600 nM	263%	1350 nM	231%				
CC[C@]1(O)CC[C@H]2[C@@H](CC[C@@H]3[C@@H]2CC[C@]2(C)[C@@H]([C@H](C)CCC4(O)CCC(C)(C)CC4)CC[C@@H]32)C1 [Compound 8963]		8.4%		55.9%	> 10000 nM	> 10000 nM		
C[C@H](CC[C@](C)(O)C(F)(F)F)[C@H]1CC[C@H]2[C@@H]3CC=C4C[C@@](C)(O)CC[C@@H]4[C@H]3CC[C@]12C [Compound 9062]							66.5%	52.2%
CC[C@@H](O)CC[C@@H](C)[C@H]1CC[C@H]2[C@@H]3CC[C@H]4C[C@](O)(CC)CC[C@@H]4[C@H]3CC[C@]12C [Compound 9142]	> 10000 nM		70.4 nM				41.6%	44.8%
